The target of data set [1] is MAP/microtubule affinity-regulating kinase 3 (Homo sapiens, UniProt P27448). Put plainly: Inhibition of full-length recombinant human GST-tagged MARK3 expressed in baculovirus expression system using biotinylated-Cdc25C peptide substrate measured after 2 hrs by HTRF assay.
In data set [2] the target is MDR1 (ABCB1, P-glycoprotein) (Homo sapiens, UniProt P08183). Description: Substrate activity at human MDR1 expressed in LLC-PK1 cells assessed as efflux ratio of permeability across basolateral to apical over apical to basolateral side at 5 uM. The class given is ADME, cell-based.
Sequence of MDR1 (ABCB1, P-glycoprotein) (P08183 whole entry): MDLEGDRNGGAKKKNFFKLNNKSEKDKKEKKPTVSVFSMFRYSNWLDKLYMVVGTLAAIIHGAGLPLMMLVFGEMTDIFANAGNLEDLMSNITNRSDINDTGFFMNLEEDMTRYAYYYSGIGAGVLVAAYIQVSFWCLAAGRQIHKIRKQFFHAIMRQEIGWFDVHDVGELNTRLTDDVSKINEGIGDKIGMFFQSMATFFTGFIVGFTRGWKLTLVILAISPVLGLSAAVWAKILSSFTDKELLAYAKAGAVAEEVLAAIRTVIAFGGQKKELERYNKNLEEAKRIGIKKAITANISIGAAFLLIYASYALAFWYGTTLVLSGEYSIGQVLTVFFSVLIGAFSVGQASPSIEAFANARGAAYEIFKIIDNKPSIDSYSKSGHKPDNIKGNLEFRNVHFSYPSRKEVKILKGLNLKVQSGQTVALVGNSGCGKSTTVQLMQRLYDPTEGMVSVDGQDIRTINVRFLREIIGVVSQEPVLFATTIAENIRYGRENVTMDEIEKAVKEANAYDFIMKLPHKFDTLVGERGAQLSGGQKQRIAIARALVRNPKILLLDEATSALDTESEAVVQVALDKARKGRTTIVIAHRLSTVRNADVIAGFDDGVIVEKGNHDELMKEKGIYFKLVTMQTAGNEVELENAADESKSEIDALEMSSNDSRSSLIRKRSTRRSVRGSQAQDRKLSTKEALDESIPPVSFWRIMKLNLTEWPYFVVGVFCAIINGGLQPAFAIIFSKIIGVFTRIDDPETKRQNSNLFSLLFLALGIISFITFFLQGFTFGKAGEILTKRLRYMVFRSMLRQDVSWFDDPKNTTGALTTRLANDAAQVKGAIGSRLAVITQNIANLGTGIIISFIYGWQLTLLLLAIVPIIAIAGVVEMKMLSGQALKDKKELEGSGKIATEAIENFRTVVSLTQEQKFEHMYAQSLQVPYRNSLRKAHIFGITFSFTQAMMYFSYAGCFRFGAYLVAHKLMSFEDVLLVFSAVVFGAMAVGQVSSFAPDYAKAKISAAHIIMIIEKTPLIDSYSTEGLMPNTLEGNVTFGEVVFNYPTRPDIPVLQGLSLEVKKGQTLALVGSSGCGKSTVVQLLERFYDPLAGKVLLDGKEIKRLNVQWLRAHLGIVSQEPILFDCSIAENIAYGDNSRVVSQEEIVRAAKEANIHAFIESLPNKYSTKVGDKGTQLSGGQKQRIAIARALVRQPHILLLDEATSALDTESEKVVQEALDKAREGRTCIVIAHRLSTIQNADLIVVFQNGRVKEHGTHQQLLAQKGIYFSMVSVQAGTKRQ
Data set [3] is described as follows: Solubility of the compound at pH 7. The class given is physicochemical. Conditions: buffer.
The nature of data set [4]: Clearance in Sprague-Dawley rat at 1 mL/kg, iv administered through catheter measured after 24 hrs by LC-MS/MS analysis. The class given is ADME, organism-based. Conditions: in vivo.

Converted amounts (≈) assume the structure as drawn. Where only a bound is given, the exact number is not on record here.

Sequence of MAP/microtubule affinity-regulating kinase 3 (P27448 whole entry): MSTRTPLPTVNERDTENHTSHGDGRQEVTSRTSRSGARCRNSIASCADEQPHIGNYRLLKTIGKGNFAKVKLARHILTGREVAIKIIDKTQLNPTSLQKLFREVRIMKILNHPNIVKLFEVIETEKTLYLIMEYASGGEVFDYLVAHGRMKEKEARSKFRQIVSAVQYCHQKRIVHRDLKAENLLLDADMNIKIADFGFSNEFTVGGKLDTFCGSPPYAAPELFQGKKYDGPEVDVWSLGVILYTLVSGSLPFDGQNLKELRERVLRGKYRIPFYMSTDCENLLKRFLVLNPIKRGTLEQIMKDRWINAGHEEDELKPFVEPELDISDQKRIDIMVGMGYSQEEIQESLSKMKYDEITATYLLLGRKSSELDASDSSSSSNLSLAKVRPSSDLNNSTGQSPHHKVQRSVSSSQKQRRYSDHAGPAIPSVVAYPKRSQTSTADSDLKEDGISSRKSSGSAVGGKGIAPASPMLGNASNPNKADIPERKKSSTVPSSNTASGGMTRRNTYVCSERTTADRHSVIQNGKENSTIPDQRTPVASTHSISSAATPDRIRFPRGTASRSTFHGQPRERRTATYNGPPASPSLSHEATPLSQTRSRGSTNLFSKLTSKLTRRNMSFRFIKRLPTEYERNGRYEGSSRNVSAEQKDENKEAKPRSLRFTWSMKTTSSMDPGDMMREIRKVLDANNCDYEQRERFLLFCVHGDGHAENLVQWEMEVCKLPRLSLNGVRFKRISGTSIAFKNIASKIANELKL

Regarding `O=C(NCC(F)(F)F)c1cc(-c2cnn3cc(-c4cn[nH]c4)cnc23)cs1`, the IC50 in data set [1] turned out to be 99 nM.

On to `Cn1cnc(-c2cnc3c(-c4csc(C(=O)NCC(F)(F)F)c4)cnn3c2)c1`, for which the IC50 in data set [1] came to 13 nM.

Consider `O=C(NCC(F)(F)F)c1cc(-c2cnn3cc(-c4cccnc4)cnc23)cs1`, for which, in data set [1], the IC50 is 70 nM.

Turning to `Cc1sc(C(=O)N[C@@H]2[C@H](N)CCCC2(F)F)cc1-c1cnn2cccnc12`, the IC50 in data set [1] is 2.4 nM. Further, in data set [2], the efflux ratio at 5 µM was 10. Also, in data set [3], the concentration in solution (solubility) was 200 µM (≈ 78.3 µg/mL).

Consider `CCNC(=O)c1cc(-c2cnn3cc(-c4cnn(C)c4)cnc23)cs1`, for which the 50% inhibitory concentration (IC50) in data set [1] is 129 nM.

As to `Cc1sc(C(=O)N[C@H]2CCCC(F)(F)[C@H]2N)cc1-c1cnn2cc(-c3cnn(C)c3)cnc12`, in data set [1], the IC50 came to 130 nM.

`Cc1sc(C(=O)N[C@@H]2[C@H](N)CCCC2(F)F)cc1-c1cnn2cc(-c3cnn(C)c3)cnc12`: the half-maximal inhibitory concentration (IC50) in data set [1] is below 0.25 nM. This compound came in with a solubility in data set [3] of 31 µM (≈ 14.6 µg/mL).

In the case of `Cn1cc(-c2cnc3c(-c4csc(C(=O)NCCC(N)C(F)(F)F)c4)cnn3c2)cn1` (stereo not drawn), the IC50 in data set [1] was determined as 10 nM. Also, the clearance in data set [4] is 14 mL/min/kg. In addition, the efflux ratio at 5 µM in data set [2] turned out to be 4.8.

In the case of `Cn1cc(-c2cnc3c(-c4csc(C(=O)NC(CO)C5CC5)c4)cnn3c2)cn1` (stereo not drawn), the IC50 in data set [1] was found to be 9 nM.

In the case of `Cn1cc(-c2cnc3c(-c4csc(C(=O)NCCC(N)C(F)F)c4)cnn3c2)cn1` (stereo not drawn), the concentration for half-maximal inhibition (IC50) in data set [1] came out at 15 nM. The clearance in data set [4] was 16.7 mL/min/kg. For the same compound, the efflux ratio at 5 µM in data set [2] was 11.5.

On to `Cn1cc(-c2cnc3c(-c4csc(C(=O)NCCC(N)CF)c4)cnn3c2)cn1` (stereo not drawn), for which the concentration for half-maximal inhibition (IC50) in data set [1] was 22 nM. The efflux ratio at 5 µM in data set [2] is 16.7.

Take `COCCOc1ccc(-c2cnc3c(-c4csc(C(=O)NCC(F)(F)F)c4)cnn3c2)cc1`: the IC50 in data set [1] was found to be 5 nM.

As for `Cn1cc(-c2cnc3c(-c4csc(C(=O)N[C@@H]5CCCC[C@H]5O)c4)cnn3c2)cn1` (mixture of isomers), the IC50 in data set [1] came out at 24 nM. The solubility in data set [3] is 6 µM.

For the compound `Cn1cc(-c2cnc3c(-c4csc(C(=O)N[C@@H]5CCC[C@@H]5N)c4)cnn3c2)cn1` (racemic), the half-maximal inhibitory concentration (IC50) in data set [1] worked out at 2 nM. Further, the solubility in data set [3] worked out at 69 µM (≈ 28.1 µg/mL).

Regarding `Cn1cc(-c2cnc3c(-c4csc(C(=O)N[C@@H]5CCCC[C@H]5N)c4)cnn3c2)cn1` (racemic), the IC50 in data set [1] amounted to 1 nM. In data set [3], this compound yielded a solubility of 193 µM (≈ 81.4 µg/mL).

Turning to `Cn1cc(-c2cnc3c(-c4csc(C(=O)N[C@@H]5CCC[C@H]5O)c4)cnn3c2)cn1` (racemic), the IC50 in data set [1] was determined as 10 nM.

On to `Cc1sc(C(=O)N[C@@H]2CCCC[C@@H]2N)cc1-c1cnn2cc(-c3cnn(C)c3)cnc12` (racemic), for which the IC50 in data set [1] worked out at 1.3 nM. This compound displayed a solubility in data set [3] of 192 µM (≈ 83.6 µg/mL).

For the compound `Cn1cc(-c2cnc3c(-c4csc(C(=O)N[C@@H]5CCC[C@H]5N)c4)cnn3c2)cn1` (racemic), the concentration for half-maximal inhibition (IC50) in data set [1] came out at 3 nM. In data set [3], this compound registered a solubility of 203 µM (≈ 82.7 µg/mL).

Consider `Cn1cc(-c2cnc3c(-c4csc(C(=O)N[C@@H]5CCCC[C@@H]5O)c4)cnn3c2)cn1` (racemic), for which, in data set [1], the IC50 was 9 nM.

`Cn1cc(-c2cnc3c(-c4csc(C(=O)N[C@@H]5CCC[C@@H]5O)c4)cnn3c2)cn1` (racemic): the IC50 in data set [1] is 43 nM.

As a reminder, the IC50 is the concentration at which inhibition is half-maximal. What is called efflux ratio is a quotient of directional permeabilities that is used to spot active efflux. As usually defined, the solubility is the dissolved amount per volume that the medium holds. Broadly, the clearance is a measure of how efficiently the substance is removed, as volume per time.

(Values after ChEMBL document CHEMBL4477252, “Optimization of microtubule affinity regulating kinase (MARK) inhibitors with improved physical properties” (Bioorg Med Chem Lett, 2016).)
